We go through six compounds from US7700657B2, “Vitamin D analogs” (Galderma Research & Development, priority 2001, dated 2010).

The subject of assay [1] is normal human keratinocytes. Briefly: Inhibition of proliferation of normal human keratinocytes (BrdU incorporation). It is filed as cell-based. The following applies: 5 days culture. As to the method: The biological properties analogous to vitamin D can likewise be measured by the capacity of the product to inhibit the proliferation of normal human keratinocytes (NHK in culture). The product is added to NHK cultured under conditions favoring the proliferative state. The product is left in contact with the cells for five days. The number of proliferative cells is measured by incorporation of bromodeoxyuridine (BRdU) into the DNA. The protocol of this test as well as the results obtained with the compounds according to the invention are described in example 8 of the present application.
It is known that 1,25-dihydroxyvitamin D3, called calcitriol and corresponding to natural vitamin D, inhibits the proliferation of human keratinocytes in culture. The method used is the following: the normal human keratinocytes are inoculated at low density into a 24-well plate. After 4 hours, the compounds to be tested are added to the culture medium. After culturing for 5 days, the proliferation of the keratinocytes is determined by incorporation of 5-bromo-2′ deoxyuridine (BrdU) in the DNA. The quantity of BrdU incorporated is then quantified by using the Elisa test (Enzyme Linked Immuno Sorbent Essay, test marketed by Roche Molecular Biochemicals).
The inhibitory effect on the proliferation of the keratinocytes of the compounds according to the invention and of the calcitriol used as a reference compound is summarized in table II which follows.
For orientation: Incorporation of labelled thymidine or its analogues reports DNA synthesis.

Assay [2] concerns the target T1, human VDR receptor (Homo sapiens, UniProt P11473).
T1 construct: expressed in transfected cells; host or cells: HeLa
T1 sequence (P11473 1-427): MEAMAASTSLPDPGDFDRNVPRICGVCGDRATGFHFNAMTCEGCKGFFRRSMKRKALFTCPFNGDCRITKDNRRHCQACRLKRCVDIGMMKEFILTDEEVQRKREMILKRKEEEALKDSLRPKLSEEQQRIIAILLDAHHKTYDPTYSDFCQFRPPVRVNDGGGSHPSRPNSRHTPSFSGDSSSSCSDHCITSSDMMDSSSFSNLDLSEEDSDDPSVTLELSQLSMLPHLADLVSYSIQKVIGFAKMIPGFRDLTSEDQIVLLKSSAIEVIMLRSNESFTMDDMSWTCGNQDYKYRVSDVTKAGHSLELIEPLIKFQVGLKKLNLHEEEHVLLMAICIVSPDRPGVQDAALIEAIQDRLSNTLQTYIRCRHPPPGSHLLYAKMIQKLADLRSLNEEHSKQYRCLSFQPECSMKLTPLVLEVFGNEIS
Briefly: Transactivation potential: VDR agonist activity, HeLa cotransfection with p240Hase-CAT reporter. The assay is classed as cell-based. The settings on record: dose giving 50% of maximum activity, HeLa cells, 18 hours treatment. An excerpt: By way of example, the VDR agonist activity can be tested on the HeLa cell line by cotransfection of an expression vector for the human VDR receptor and of the reporter plasmid p240Hase-CAT. The agonist activity can be characterized in this cotransfection system by the determination of the dose necessary to obtain 50% of the maximum activity of the product (AC50). The detail of the protocol of this test as well as the results obtained with the compounds according to the invention are described in example 7 of the present application.
The VDR agonist activity can be tested on the HeLa cell line, by cotransfection of an expression vector of the human VDR receptor and of the p240Hase-CAT reporter plasmid which contains the region −1399 to +76 of the rat 24-hydroxylase promoter, cloned upstream of the phase coding for the chloramphenicol acetyltransferase (CAT) gene. 18 hours after cotransfection, the test product is added to the medium. After treatment for 18 hours, the measurement of the CAT activity of the cell lysates is carried out by means of an Elisa test (Enzyme Linked Immuno Sorbent Essay, test marketed by Roche Molecular Biochemicals). The agonist activity can be characterized in this cotransfection system by the determination of the dose necessary in order to obtain 50% of the maximum activity of the product (AC50).

Assay [3] deals with 24-hydroxylase. The assay is described as follows: In vivo induction of 24-hydroxylase mRNA in SKH mice after single topical application. The settings on record: for Induction in % vs Induction Calcitriol Tested at 0.01%: topical, 8 hours; for MRNA EXPRESSION OF 24-HYDROXYLASE Induction Factor Versus Ethanol: 50 μl, epidermis 8 hours after application. The source says:
The agonist activity on vitamin D receptors of the compounds of the invention can be likewise evaluated “in vivo” by induction of 24-hydroxylase in SKH mice. (Kang et. al., Journal of Investigative Dermatology, 1997, 108(4), 513-518). The test protocol used as well as the results obtained with the compounds according to the invention are described in example 10 of the present application. 1]:
Consequently, the agonist activity on receptors of vitamin D of the compounds of the invention can be evaluated “in vivo” by induction of 24-hydroxylase in SKH mice.
The method used is the following: […] mice receive a single topical application of a compound to be tested in solution in ethanol at increasing concentrations. A volume of 50 μl of the product to be tested or of the vehicle alone is applied on the back of the mice with the aid of a pipette.
Other SKH mice receive a single topical application of calcitriol in solution in ethanol at increasing concentrations. A volume of 50 μl of the product to be tested or of the vehicle alone is applied on the back of the mice with the aid of a pipette.
8 hours after topical application, the mice are euthanized, the treated skin is removed and the epidermidis is separated from the dermis. The quantification of the MRNA of the 24-Hydroxylase is carried out by semiquantitative PCR. The results are standardized with respect to the expression of the mRNA of GAPDH and the values for the different concentrations of calcitriol tested and, for the different compounds of the invention tested, are expressed as an induction factor with respect to calcitriol.

Assay [4] concerns HL60 promyelocytic leukemia cells. Briefly: Induction of differentiation of HL60 cells (NBT reduction). The following applies: 4 days culture, NBT-positive cells, read-out: Activation of Differentiation AC 50. It is filed as cell-based. The source says:
The biological properties analogous to vitamin D can likewise be measured by the capacity of the product to induce the differentiation of HL60 promyelocytic leukemia cells. The protocol of this test as well as the results obtained with the compounds according to the invention are described in example 9 of the present application.
Calcitriol induces the differentiation of promyelocytic leukemia cells (HL60) in monocytes/macrophages. This differentiation inductor effect is a well-characterized marker of cellular vitamin D activity. One of the most important antimicrobial products of macrophages is hydrogen peroxide, which can be analyzed experimentally by the reduction of NBT (Nitroblue Tetrazolium).
The method used is the following: The HL60 cells are inoculated into 6-well plates and then treated immediately with the compounds to be tested. After 4 days in culture, the cells are incubated with phorbol TPA ester and NBT for a short period and the differentiated cells, i.e., positive to NBT, are counted.

Where [5] appears, read: compound tested at 0.01% (weight/volume).

Where two headings read alike, the source gives them in different places.

In general, IC50 refers to the concentration that gives 50% inhibition. A higher IC50 goes with weaker potency. `CC/C(=C\C#CC(O)(C(F)(F)F)C(F)(F)F)c1cccc(OCc2ccc(CO)c(CO)c2)c1` [Example 2, (E)-6-[3-{3,4-Bis-hydroxymethylbenzyloxy)phenyl]-1,1,1-trifluoro-2-tifluoromethyloct-5-en-3-yn-2-ol]: the half-inhibitory concentration (IC50) in assay [1] (Keratinocyte, 120 h) is 153 nM. The compound also came in with an AC50 in assay [2] of 77 nM. In addition, the “Induction in % vs Induction Calcitriol Tested at 0.01%” value in assay [3] (setting [5]) is listed as 58%.

For the compound `CC/C(=C\C=C\C(O)(C(F)(F)F)C(F)(F)F)c1cccc(CCc2ccc(CO)c(CO)c2)c1` [Example 5, (3E,5E)-6-{3-[2-(3,4-Bis-hydroxymethylphenyl)ethyl]-phenyl}-1,1,1-trifluoro-2-trifluoromethylocta-3,5-dien-2-ol], the midpoint of inhibition in assay [1] (Keratinocyte, 120 h), the IC50, lay at 8 nM. Besides, the AC50 in assay [2] amounted to 3 nM; in assay [4] (Homo sapiens, HL-60, 96 h) it was 5 nM. Besides, the “Induction in % vs Induction Calcitriol Tested at 0.01%” value in assay [3] (compound tested at 0.0003% (weight/volume)) amounted to 106%.

Consider `CC/C(=C\C#CC(O)(C(F)(F)F)C(F)(F)F)c1cccc(CCc2ccc(CO)c(CO)c2)c1` [Example 4, (E)-6-{3-[2-(3,4-Bis-hydroxymethylphenyl)ethyl]phenyl}-1,1,1-trifluoro-2-trifluoromethyloct-5-en-3-yn-2-ol], for which, in assay [1] (Keratinocyte, 120 h), the 50% inhibitory concentration (IC50) was determined as 29 nM. The compound also gave an AC50 in assay [2] of 16 nM. Besides, the “Induction in % vs Induction Calcitriol Tested at 0.01%” value in assay [3] (setting [5]) worked out at 89%.

`CC/C(=C\C=C\C(O)(CC)CC)c1cccc(CCc2ccc(CO)c(CO)c2)c1` [Example 1, (4E,6E)-7-{3-[2-(3,4-Bis-hydroxymethylphenyl)ethyl]-phenyl}-3-ethylnona-4,6-dien-3-ol] showed a 50% inhibitory concentration (IC50) in assay [1] (Keratinocyte, 120 h) of 45 nM. The AC50 came to 39 nM in assay [2] and 56 nM in assay [4] (Homo sapiens, HL-60, 96 h). Moreover, the “Induction in % vs Induction Calcitriol Tested at 0.01%” value in assay [3] (compound tested at 0.1% (weight/volume)) was 108%.

In the case of “1,25-dihydroxyvitamin D3 [Calcitriol, reference compound]”, the IC50 in assay [1] came to 14 nM. Besides, the AC50 in assay [4] turned out to be 7 nM. Besides, the “Induction in % vs Induction Calcitriol Tested at 0.01%” value in assay [3] (setting [5]) came to 100%. For the same compound, the “MRNA EXPRESSION OF 24-HYDROXYLASE Induction Factor Versus Ethanol” value in assay [3] (topical 0.0001% (weight/volume) in ethanol) worked out at 6.7; in assay [3] (topical 0.001% (weight/volume) in ethanol), 10.3; in assay [3] (topical 0.01% (weight/volume) in ethanol), 20.1; in assay [3] (topical 0.1% (weight/volume) in ethanol) it was 26.

In assay [1] (Keratinocyte, 120 h), `CC/C(=C\C=C\C(O)(C(F)(F)F)C(F)(F)F)c1cccc(OCc2ccc(CO)c(CO)c2)c1` [Example 3, (3E,5E)-6-[3-(3,4-Bis-hydroxymethylbenzyloxy)pheny]-1,1,1-trifluoro-2 trifluoromethylocta-3,5-dien-2-ol] showed a concentration for half-maximal inhibition (IC50) of 35 nM. Further, the AC50 in assay [2] is 7 nM; in assay [4] (Homo sapiens, HL-60, 96 h), 7 nM. Besides, the “Induction in % vs Induction Calcitriol Tested at 0.01%” value in assay [3] (compound tested at 0.001% (weight/volume)) was determined as 59%. Also, the “activity (24-hydroxylase induction) compared with calcitriol” value in assay [3] (in words) is “very superior”.
